Measured values: PubChem BioAssay (NCI)
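96-well plates; 48 h exposure; 5 concentrations. Endpoints by linear interpolation between flanking doses. Not reached: highest tested concentration assigned. GI50: concentration for 50% inhibition of growth. TGI is the concentration that stops growth completely.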

Legend:
Assay in all cases: DTP human tumour cell line panel, 48 h
[1] = tested on: NCI-H522 lung
[2] = tested on: LOX IMVI melanoma
[3] = tested on: RPMI-8226 leukemia
[4] = tested on: K-562 leukemia
[5] = tested on: EKVX NSCLC
[6] = tested on: MCF7 breast
[7] = tested on: HS 578T breast
[8] = tested on: M14 melanoma
[9] = tested on: NCI-H226 lung
[10] = tested on: MALME-3M melanoma
[11] = tested on: A549 NSCLC
[12] = tested on: OVCAR-5 ovarian
[13] = tested on: T-47D breast
[14] = tested on: SR leukemia
[15] = tested on: KM12 colon
[16] = tested on: SK-OV-3 ovarian
[17] = tested on: SK-MEL-5 melanoma
[18] = tested on: NCI-H460 lung
[19] = tested on: TK-10 renal
[20] = tested on: UACC-62 melanoma
[21] = tested on: UACC-257 melanoma
[22] = tested on: HT29 colon
[23] = tested on: DU-145 prostate
[24] = tested on: RXF 393 renal
[25] = tested on: U251 CNS
[26] = tested on: IGROV1 ovarian
[27] = tested on: CAKI-1 renal
[28] = tested on: SW-620 colon
[29] = tested on: SN12C renal

Compound: CCN1CCC[C@H]1c1cc(O)c2c(c1OC)C[C@H]1C[C@H]3[C@H](N)C(=O)C(C(N)=O)=C(O)[C@@]3(O)C(=O)C1=C2O
- GI50 [1]: 56.2 nM
- TGI [1]: 799 nM
- GI50 [2]: 38.6 nM
- TGI [2]: 1230 nM
- GI50 [3]: 41 nM
- TGI [3]: 454 nM
- GI50 [4]: 59.9 nM
- TGI [4]: > 100000 nM
- GI50 [5]: 203 nM
- TGI [5]: 3540 nM
- GI50 [6]: 241 nM
- TGI [6]: 6100 nM
- GI50 [7]: 49.5 nM
- TGI [7]: 1120 nM
- GI50 [8]: 49.2 nM
- TGI [8]: 1370 nM
- GI50 [9]: 216 nM
- TGI [9]: 3960 nM
- GI50 [10]: 42.3 nM
- TGI [10]: 689 nM
- GI50 [11]: 207 nM
- TGI [11]: 8720 nM
- GI50 [12]: 187 nM
- TGI [12]: 4120 nM
- GI50 [13]: 44.8 nM
- TGI [13]: 1470 nM
- GI50 [14]: 43.6 nM
- TGI [14]: 940 nM
- GI50 [15]: 99.8 nM
- TGI [15]: 13200 nM
- GI50 [16]: 32 nM
- TGI [16]: 215 nM
- GI50 [17]: 79.7 nM
- TGI [17]: 951 nM
- GI50 [18]: 60.2 nM
- TGI [18]: 1900 nM
- GI50 [19]: 62.6 nM
- TGI [19]: 2420 nM
- GI50 [20]: 66.8 nM
- TGI [20]: 1300 nM
- GI50 [21]: 126 nM
- TGI [21]: 2110 nM
- GI50 [22]: 112 nM
- TGI [22]: 5430 nM
- GI50 [23]: 66.4 nM
- TGI [23]: 2160 nM
- GI50 [24]: 31.2 nM
- TGI [24]: 247 nM
- GI50 [25]: 44.2 nM
- TGI [25]: 1880 nM
- GI50 [26]: 41.9 nM
- TGI [26]: 4950 nM
- GI50 [27]: 29.3 nM
- TGI [27]: 620 nM
- GI50 [28]: 53.6 nM
- TGI [28]: 3240 nM
- GI50 [29]: 68.2 nM
- TGI [29]: 1500 nM
